# Tested on: Phakopsora pachyrhizi
# Test: Fungicidal activity: Asian soybean rust (PHAKPA), soybean seedlings
# Format: in vivo
# Conditions: High volume, 25 ppm, 3 Day Curative
# Protocol: Example C: Evaluation of Fungicidal Activity: Asian Soybean Rust (Phakopsora pachyrhizi; Bayer Code […]) Technical grades of materials were dissolved in acetone, which were then mixed with nine volumes of water containing 0.011% Tween 20. The fungicide solutions were applied onto soybean seedlings using an automated booth sprayer to run-off. All sprayed plants were allowed to air dry prior to further handling. Soybean plants (variety Williams 82) were grown in soil-less Metro mix, with one plant per pot. Two week old seedlings were used for testing. Plants were inoculated either 3 days prior to or 1 day after fungicide treatments. Plants were incubated for 24 h in a dark dew room at 22° C. and 100% relative humidity then transferred to a growth room at 23° C. for disease to develop. Disease severity was assessed on the sprayed leaves.
row,Structure (SMILES),"PHAKPA disease control, 3DC"
1,COc1ccnc(C(=O)N[C@@H](C)C(=O)O[C@H](C)[C@H](c2ccc(F)cc2C)C(C)C)c1OC(C)=O [compound 192],B (≤80)
2,COc1ccnc(C(=O)N[C@@H](C)C(=O)O[C@@H](C)[C@@H](c2ccc(F)cc2C)C(C)C)c1OC(C)=O [compound 178],B (≤80)
3,COc1ccnc(C(=O)N[C@@H](C)C(=O)O[C@@H](C)[C@@H](c2ccc(C)cc2F)C(C)C)c1OC(C)=O [compound 369],B (≤80)
4,COc1ccnc(C(=O)N[C@@H](C)C(=O)O[C@@H](C)[C@H](c2ccc(C)cc2F)C(C)C)c1OC(C)=O [compound 366],B (≤80)
